Data reported in patent US9957271B2, “Substituted bicyclic aza-heterocycles and analogues as sirtuin modulators” (GlaxoSmithKline, LLC, priority 2012, dated 2018).

Target: T1, SIRT1 (Homo sapiens, UniProt Q96EB6)
T1 sequence (Q96EB6 1-747): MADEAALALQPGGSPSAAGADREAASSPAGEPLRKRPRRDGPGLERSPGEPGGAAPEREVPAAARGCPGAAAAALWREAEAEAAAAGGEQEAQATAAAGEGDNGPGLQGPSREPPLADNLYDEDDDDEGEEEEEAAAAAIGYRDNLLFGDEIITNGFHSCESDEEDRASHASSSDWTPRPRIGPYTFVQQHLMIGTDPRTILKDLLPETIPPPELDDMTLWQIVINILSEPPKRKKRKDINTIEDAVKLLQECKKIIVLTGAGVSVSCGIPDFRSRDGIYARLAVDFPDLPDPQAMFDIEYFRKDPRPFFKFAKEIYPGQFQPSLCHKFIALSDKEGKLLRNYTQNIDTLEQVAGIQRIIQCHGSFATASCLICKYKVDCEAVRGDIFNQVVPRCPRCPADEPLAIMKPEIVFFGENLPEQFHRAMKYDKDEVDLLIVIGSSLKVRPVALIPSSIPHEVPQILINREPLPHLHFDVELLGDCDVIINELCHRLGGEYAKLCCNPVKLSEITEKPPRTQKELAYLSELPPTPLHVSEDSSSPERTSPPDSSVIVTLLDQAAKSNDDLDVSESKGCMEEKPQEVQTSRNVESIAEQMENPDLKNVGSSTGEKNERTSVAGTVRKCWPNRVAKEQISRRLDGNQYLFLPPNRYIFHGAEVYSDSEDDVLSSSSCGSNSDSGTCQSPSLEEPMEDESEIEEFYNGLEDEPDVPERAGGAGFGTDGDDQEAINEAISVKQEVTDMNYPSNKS
Assay: TAMRA based mass spectrometry assay of SIRT1 activity
Type: biochemical
Conditions: TAMRA assay; for TAMRA EC1.5 (μM): concentration giving 150% activation of SIRT1; for Emax: percent maximum fold activation, read-out: TAMRA % Fold Act
How it was run: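 Deacetylation of a biotinylated, TAMRA-tagged p53-based peptide (0.5 μM) by 10 nM His-tagged SIRT1 with 120 μM βNAD+, 25 °C for 25 min, pH 8 Tris-acetate buffer, across a compound concentration range. Quenched by formic acid and read by mass spec as product peptide or OAADPR; activity relative to DMSO reactions, nicotinamide defining maximal inhibition.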

TAMRA EC1.5 (μM)	Emax	SMILES
B (EC1.5 1-25 μM)	< 350%	Cc1cc(C)c(NC(=O)c2cnn3ccc(-c4ccccc4OC(F)(F)F)nc23)cn1 [Compound 661]
A (EC1.5<1 μM)	< 350%	COCCOc1cc(NC(=O)c2cnc3c(C)cc(-c4ccccc4C(F)(F)F)nn23)ncn1 [Compound 662]
A (EC1.5<1 μM)	≥ 350%	Cc1ccc(NC(=O)c2c(C)nc3ccc(-c4ccccc4C(F)(F)F)nn23)nn1 [Compound 664]
A (EC1.5<1 μM)	≥ 350%	CCOc1ccc(NC(=O)c2c(C)nc3ccc(-c4ccccc4C(F)(F)F)nn23)nn1 [Compound 666]
A (EC1.5<1 μM)	≥ 350%	Cc1nc2ccc(-c3ccccc3C(F)(F)F)nn2c1C(=O)Nc1cnncn1 [Compound 667]
A (EC1.5<1 μM)	≥ 350%	Cc1nc2ccc(-c3ccccc3C(F)(F)F)nn2c1C(=O)Nc1nccc(N2CCCC2)n1 [Compound 669]
A (EC1.5<1 μM)	≥ 350%	COc1cncnc1NC(=O)c1c(C)nc2ccc(-c3ccccc3C(F)(F)F)nn12 [Compound 670]
A (EC1.5<1 μM)	≥ 350%	Cc1nc2ccc(-c3ccccc3C(F)(F)F)nn2c1C(=O)Nc1ccc(Cl)cn1 [Compound 673]
C (EC1.5>25 μM)	< 350%	Cc1nc2ccc(-c3ccccc3C(F)(F)F)nn2c1C(=O)Nc1ccnn1C [Compound 675]
A (EC1.5<1 μM)	≥ 350%	CCOc1n[nH]c(NC(=O)c2c(C)nc3ccc(-c4ccccc4C(F)(F)F)nn23)n1 [Compound 676]
A (EC1.5<1 μM)	≥ 350%	Cc1ccc(NC(=O)c2c(C)nn3ccc(-c4ccccc4C(F)(F)F)nc23)nc1 [Compound 684]
A (EC1.5<1 μM)	≥ 350%	Cc1cc(C)nc(NC(=O)c2c(C)nn3ccc(-c4ccccc4C(F)(F)F)nc23)c1 [Compound 685]
B (EC1.5 1-25 μM)	< 350%	Cc1cc(C)c(NC(=O)c2cnn3ccc(-c4ccccc4C(F)(F)F)nc23)cn1 [Compound 687]
C (EC1.5>25 μM)	< 350%	Cc1cnc(NC(=O)c2cnn3ccc(-c4ccccc4OC(F)(F)F)nc23)c(C)n1 [Compound 689]
C (EC1.5>25 μM)	< 350%	O=C(Nc1ncc(F)cc1F)c1cnn2ccc(-c3ccccc3OC(F)(F)F)nc12 [Compound 690]
A (EC1.5<1 μM)	≥ 350%	Cc1cc(-c2ccccc2C(F)(F)F)nn2c(C(=O)Nc3ccnc(N4CC5(CCS5(=O)=O)C4)n3)cnc12 [Compound 691]
A (EC1.5<1 μM)	≥ 350%	COc1ccc(NC(=O)c2c(C)nn3ccc(-c4ccccc4C(F)(F)F)nc23)nn1 [Compound 696]
A (EC1.5<1 μM)	≥ 350%	CCOc1ccc(NC(=O)c2c(C)nn3ccc(-c4ccccc4C(F)(F)F)nc23)nn1 [Compound 697]
A (EC1.5<1 μM)	< 350%	Cc1ncccc1NC(=O)c1c(C)nn2ccc(-c3ccccc3C(F)(F)F)nc12 [Compound 699]
A (EC1.5<1 μM)	≥ 350%	Cc1csc(NC(=O)c2cnn3ccc(-c4ccccc4OC(F)(F)F)nc23)n1 [Compound 702]
A (EC1.5<1 μM)	≥ 350%	COc1cc(NC(=O)c2cnn3ccc(-c4ccccc4OC(F)(F)F)nc23)ncn1 [Compound 703]
A (EC1.5<1 μM)	≥ 350%	O=C(Nc1cnc2ccc(-c3ccccc3C(F)(F)F)nn12)c1cc(O)ncn1 [Compound 705]
B (EC1.5 1-25 μM)	≥ 350%	Cc1cc(C)c(NC(=O)c2c(C)nn3ccc(-c4ccccc4C(F)(F)F)nc23)cn1 [Compound 708]
A (EC1.5<1 μM)	≥ 350%	Cc1nn2ccc(-c3ccccc3C(F)(F)F)nc2c1C(=O)Nc1nccs1 [Compound 709]
A (EC1.5<1 μM)	≥ 350%	O=C(Nc1cc(O)ncn1)c1cnn2ccc(-c3ccccc3OC(F)(F)F)nc12 [Compound 711]
A (EC1.5<1 μM)	≥ 350%	Cc1ccnc(C(=O)Nc2cnn3ccc(-c4ccccc4OC(F)(F)F)nc23)c1 [Compound 714]

TAMRA EC1.5 (μM)	Emax	SMILES
B (EC1.5 1-25 μM)	≥ 350%	Cc1nc2ccc(-c3ccccc3Cl)nn2c1C(=O)Nc1cccnn1 [Compound 715]
B (EC1.5 1-25 μM)	≥ 350%	COc1ccc(NC(=O)c2c(C)nc3ccc(-c4ccccc4C)nn23)nn1 [Compound 720]
B (EC1.5 1-25 μM)	< 350%	CCOc1ccc(NC(=O)c2c(C)nc3ccc(-c4ccccc4C)nn23)nn1 [Compound 721]
A (EC1.5<1 μM)	≥ 350%	Cc1cnc(NC(=O)c2cnn3ccc(-c4ccccc4C(F)(F)F)nc23)cn1 [Compound 723, N-(5-methylpyrazin-2-yl)-5-(2-(trifluoromethyl)phenyl)pyrazolo[1,5-a]pyrimidine-3-carboxamide]
A (EC1.5<1 μM)	≥ 350%	Cc1nccc(C(=O)Nc2cnn3ccc(-c4ccccc4OC(F)(F)F)nc23)n1 [Compound 726]
A (EC1.5<1 μM)	≥ 350%	Cc1cc(C(=O)Nc2cnn3ccc(-c4ccccc4OC(F)(F)F)nc23)nc(C)n1 [Compound 727]
A (EC1.5<1 μM)	≥ 350%	Cc1nccc(NC(=O)c2c(C)nc3c(C)cc(-c4ccccc4C(F)(F)F)nn23)n1 [Compound 729]
A (EC1.5<1 μM)	≥ 350%	Cc1nc2c(C)cc(-c3ccccc3C(F)(F)F)nn2c1C(=O)Nc1ccnc(C2CC2)n1 [Compound 732]
A (EC1.5<1 μM)	≥ 350%	COCc1nccc(NC(=O)c2c(C)nc3c(C)cc(-c4ccccc4C(F)(F)F)nn23)n1 [Compound 733]
B (EC1.5 1-25 μM)	≥ 350%	O=C(Nc1cnn2ccc(-c3ccccc3OC(F)(F)F)nc12)c1cnc(O)cn1 [Compound 735]
A (EC1.5<1 μM)	≥ 350%	Cc1nc2c(N3CCOCC3)cc(-c3ccccc3C(F)(F)F)nn2c1C(=O)Nc1cccnn1 [Compound 738, 2-methyl-8-morpholino-N-(pyridazin-3-yl)-6-(2-(trifluoromethyl)phenyl)imidazo[1,2-b]pyridazine-3-carboxamide]
B (EC1.5 1-25 μM)	< 350%	CCOc1ccc(NC(=O)c2c(C)nc3ccc(-c4ccccc4F)nn23)nn1 [Compound 741]
A (EC1.5<1 μM)	< 350%	CCOc1ccc(NC(=O)c2c(C)nc3ccc(-c4ccccc4Cl)nn23)nn1 [Compound 744]
A (EC1.5<1 μM)	≥ 350%	Cc1nc2c(OC[C@H]3COC(C)(C)O3)cc(-c3ccccc3C(F)(F)F)nn2c1C(=O)Nc1cccnn1 [Compound 745]
A (EC1.5<1 μM)	≥ 350%	O=C(Nc1cnn2ccc(-c3ccccc3C(F)(F)F)nc12)c1ncccc1F [Compound 747]
A (EC1.5<1 μM)	≥ 350%	Cc1cc(C)nc(C(=O)Nc2cnn3ccc(-c4ccccc4OC(F)(F)F)nc23)c1 [Compound 750]
A (EC1.5<1 μM)	≥ 350%	COc1cccc(C(=O)Nc2cnn3ccc(-c4ccccc4OC(F)(F)F)nc23)n1 [Compound 751]
B (EC1.5 1-25 μM)	≥ 350%	Cc1cnc(NC(=O)c2c(C)nn3ccc(-c4ccccc4C(F)(F)F)nc23)c(C)n1 [Compound 753]
B (EC1.5 1-25 μM)	≥ 350%	Cc1scnc1C(=O)Nc1cnn2ccc(-c3ccccc3OC(F)(F)F)nc12 [Compound 756]
B (EC1.5 1-25 μM)	≥ 350%	Cc1cc(C)nc(NC(=O)c2c(C)nc3ccc(-c4ccccc4OC[C@H](O)CO)nn23)c1 [Compound 757]
A (EC1.5<1 μM)	< 350%	COc1ccc(NC(=O)c2c(C)nc3ccc(-c4cccc(C)c4)nn23)nn1 [Compound 759]
A (EC1.5<1 μM)	< 350%	CCOc1ccc(NC(=O)c2c(C)nc3ccc(-c4cccc(C)c4)nn23)nn1 [Compound 760]
B (EC1.5 1-25 μM)	< 350%	CCOc1ccc(NC(=O)c2c(C)nc3ccc(-c4cccc(F)c4)nn23)nn1 [Compound 762]
A (EC1.5<1 μM)	≥ 350%	Cc1nc2ccc(-c3ccccc3Br)nn2c1C(=O)Nc1cccnn1 [Compound 763]
A (EC1.5<1 μM)	≥ 350%	Cc1ccc(NC(=O)c2c(C)nc3ccc(-c4ccccc4Br)nn23)nn1 [Compound 764]
